# Reference: patent publication US9657003B2, “Androgen receptor modulating compounds” (ORION CORPORATION, priority 2009, dated 2017)
# Target: human AR (Homo sapiens (Human), UniProt P10275)
# Assay: Agonism in AR overexpressing hAR/HEK293 cells, reporter gene assay
# Assay type: cell-based
# Conditions: % of testosterone-induced AR activity at 10 μM concentration
# Experimental: AR agonism of the test compound in AR overexpressing hAR/HEK293 cells was measured as % of testosterone-induced AR activity at 10 μM concentration,
# Agonism of test compounds in AR overexpressing cells was measured by reporter gene assay in HEK293 cells stably transfected with an expression vector encoding full-length human AR and androgen responsive luciferase reporter gene construct. A clone expressing high levels of androgen receptor (5 times more than AR levels in AR-HEK293 cells) was selected to study agonism in AR overexpressing cells. To determine agonism, the cells were treated with increasing concentrations of the test compound. The final DMSO concentration was 1%. The test compounds were studied in triplicates and luciferase activity was determined as described above.
# human AR, sequence (P10275 whole entry): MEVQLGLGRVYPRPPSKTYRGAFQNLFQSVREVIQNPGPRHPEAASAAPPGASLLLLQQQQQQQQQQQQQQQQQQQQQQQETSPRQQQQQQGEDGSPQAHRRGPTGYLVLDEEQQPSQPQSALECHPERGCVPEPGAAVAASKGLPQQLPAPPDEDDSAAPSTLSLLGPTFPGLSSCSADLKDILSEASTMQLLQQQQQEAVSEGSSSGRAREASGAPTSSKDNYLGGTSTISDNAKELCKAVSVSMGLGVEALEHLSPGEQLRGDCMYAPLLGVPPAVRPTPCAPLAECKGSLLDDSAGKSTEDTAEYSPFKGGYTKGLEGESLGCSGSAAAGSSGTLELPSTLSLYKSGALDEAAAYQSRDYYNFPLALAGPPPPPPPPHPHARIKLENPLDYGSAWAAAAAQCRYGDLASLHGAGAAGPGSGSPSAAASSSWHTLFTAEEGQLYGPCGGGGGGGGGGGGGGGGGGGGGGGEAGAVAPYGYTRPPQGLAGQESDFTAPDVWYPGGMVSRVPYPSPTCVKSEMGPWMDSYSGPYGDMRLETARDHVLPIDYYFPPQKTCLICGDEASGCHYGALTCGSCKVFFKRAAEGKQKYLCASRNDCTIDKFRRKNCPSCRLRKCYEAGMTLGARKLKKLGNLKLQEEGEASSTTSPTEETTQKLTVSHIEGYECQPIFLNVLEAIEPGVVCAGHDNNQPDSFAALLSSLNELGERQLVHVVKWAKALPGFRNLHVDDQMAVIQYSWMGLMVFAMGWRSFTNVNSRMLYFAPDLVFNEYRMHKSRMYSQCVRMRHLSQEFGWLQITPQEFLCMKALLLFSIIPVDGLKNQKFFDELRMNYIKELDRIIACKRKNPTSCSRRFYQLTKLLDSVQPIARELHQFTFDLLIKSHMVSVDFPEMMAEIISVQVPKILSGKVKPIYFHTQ
row,Structure (SMILES),Agonism in AR overexpressing cells (%)
1,"O=C(NCCc1ccc(-c2ccc(Cl)c(Cl)c2)o1)c1cc(C(=O)N2CCOCC2)n[nH]1 [Example 8, N-(2-(5-(3,4-dichlorophenyl)furan-2-yl)ethyl)-3-(morpholine-4-carbonyl)-1H-pyrazole-5-carboxamide]",0
2,"Cc1cc(-c2ccn(C[C@H](C)NC(=O)c3cc(-c4ccco4)n[nH]3)n2)ccc1C#N [Example 32, (S)—N-(1-(3-(4-cyano-3-methylphenyl)-1H-pyrazol-1-yl)propan-2-yl)-3-(furan-2-yl)-1H-pyrazole-5-carboxamide]",39
3,"CC(=O)c1cc(C(=O)N[C@@H](C)Cn2ccc(-c3ccc(C#N)c(Cl)c3)n2)[nH]n1 [Example 34, (S)-3-acetyl-N-(1-(3-(3-chloro-4-cyanophenyl)-1H-pyrazol-1-yl)propan-2-yl)-1H-pyrazole-5-carboxamide]",39
4,"N#Cc1ccc(-c2ccn(CCNC(=O)c3cc(-c4cccnc4)n[nH]3)n2)cc1C#N [Example 52, N-(2-(3-(3,4-dicyanophenyl)-1H-pyrazol-1-yl)ethyl)-3-(pyridin-3-yl)-1H-pyrazole-5-carboxamide]",40
5,"CC(O)c1cc(C(=O)N[C@@H](C)Cn2ccc(-c3ccc(C#N)c(Cl)c3)n2)[nH]n1 (stereo partly drawn) [Example 56, N—((S)-1-(3-(3-chloro-4-cyanophenyl)-1H-pyrazol-1-yl)-propan-2-yl)-3-(1-hydroxyethyl)-1H-pyrazole-5-carboxamide]",27
6,"CCc1noc(C(=O)N[C@@H](C)Cn2ccc(-c3ccc(C#N)c(Cl)c3)n2)n1 [Example 91, (S)—N-(1-(3-(3-chloro-4-cyanophenyl)-1H-pyrazol-1-yl)propan-2-yl)-3-ethyl-1,2,4-oxadiazole-5-carboxamide]",18
7,"Cc1nc(-c2cc(C(=O)N[C@@H](C)Cn3ccc(-c4ccc(C#N)c(Cl)c4)n3)n[nH]2)cs1 [Example 94, (S)—N-(1-(3-(3-chloro-4-cyanophenyl)-1H-pyrazol-1-yl)propan-2-yl)-5-(2-methylthiazol-4-yl)-1H-pyrazole-3-carboxamide]",18
8,"Cc1noc(C(=O)N[C@@H](C)Cn2ccc(-c3ccc(C#N)c(Cl)c3)n2)n1 [Example 103, (S)—N-(1-(3-(3-chloro-4-cyanophenyl)-1H-pyrazol-1-yl)propan-2-yl)-3-methyl-1,2,4-oxadiazole-5-carboxamide]",19
9,"CC(O)c1cc(C(=O)N[C@@H](C)Cn2ccc(-c3ccc(C#N)c(Cl)c3)n2)no1 (stereo partly drawn) [Example 124, N—((S)-1-(3-(3-chloro-4-cyanophenyl)-1H-pyrazol-1-yl)propan-2-yl)-5-(1-hydroxyethyl)isoxazole-3-carboxamide]",5
10,"C[C@H](Cn1ccc(-c2ccc(C#N)c(Cl)c2)n1)NC(=O)c1csc(N2CCOCC2)n1 [Example 132, (R)—N-(1-(3-(3-chloro-4-cyanophenyl)-1H-pyrazol-1-yl)propan-2-yl)-2-morpholinothiazole-4-carboxamide]",21
11,"Cc1c(-c2ccn(C[C@H](C)NC(=O)c3csc(C(C)O)n3)n2)ccc(C#N)c1Cl (stereo partly drawn) [Example 186, N—((S)-1-(3-(3-chloro-4-cyano-2-methylphenyl)-1H-pyrazol-1-yl)propan-2-yl)-2-(1-hydroxyethyl)thiazole-4-carboxamide]",>20
12,"C[C@@H](Cn1ccc(-c2ccc(C#N)c(Cl)c2)n1)NC(=O)c1csc(-c2cn[nH]c2)n1 [Example 206, (S)—N-(1-(3-(3-chloro-4-cyanophenyl)-1H-pyrazol-1-yl)propan-2-yl)-2-(1H-pyrazol-4-yl)thiazole-4-carboxamide]",>20
13,"CC(=O)c1cc(C(=O)NC[C@H](C)n2ccc(-c3cc(F)c(C#N)c(F)c3)n2)[nH]n1 [Example 219, (S)-3-acetyl-N-(2-(3-(4-cyano-3,5-difluorophenyl)-1H-pyrazol-1-yl)propyl)-1H-pyrazole-5-carboxamide]",0
14,"C[C@H](CNC(=O)c1csc(CC#N)n1)n1ccc(-c2cc(F)c(C#N)c(F)c2)n1 [Example 222, (R)—N-(2-(3-(4-cyano-3,5-difluorophenyl)-1H-pyrazol-1-yl)propyl)-2-(cyanomethyl)thiazole-4-carboxamide]",20
15,"Cc1nc(C(=O)N[C@@H](C)Cn2ccc(-c3cc(F)c(C#N)c(Cl)c3)n2)c[nH]1 [Example 249, (S)—N-{1-[3-(3-Chloro-4-cyano-5-fluorophenyl)-1H-pyrazol-1-yl]propan-2-yl}-2-methyl-1H-imidazole-4-carboxamide]",34
16,"C[C@@H](Cn1ccc(-c2cc(F)c(C#N)c(Cl)c2)n1)NC(=O)c1cn2cccnc2n1 [Example 324, (S)—N-(1-(3-(3-chloro-4-cyano-5-fluorophenyl)-1H-pyrazol-1-yl)propan-2-yl)imidazo[1,2-a]pyrimidine-2-carboxamide]",16
17,"C[C@@H](Cn1ccc(-c2ccc(C#N)c(Cl)c2)n1)NC(=O)c1[nH]nc2c1COCC2 [Example 338, (S)—N-(1-(3-(3-chloro-4-cyanophenyl)-1H-pyrazol-1-yl)propan-2-yl)-2,4,6,7-tetrahydropyrano[4,3-c]pyrazole-3-carboxamide]",25

# System: VCaP prostate cancer cell line
# Assay: Inhibition of mibolerone-induced VCaP cell proliferation (WST-1)
# Assay type: cell-based
# Conditions: Homo sapiens, mibolerone-induced (usually 0.1 nM) proliferation, 4-5 days
# Experimental: The IC50 value of the test compound for inhibition of mibolerone-induced VCaP cell proliferation was measured.
# Cell Proliferation Assays
# The ability of test compounds to inhibit prostate, cancer cell growth was studied by measuring inhibition of cell proliferation using androgen-sensitive VCaP prostate cancer cell line. […] Cell proliferation was measured using WST-1 Cell Proliferation Assay (Roche).
row,IC50 [nM],Structure (SMILES)
1,490,"Cc1nc(C(=O)N[C@@H](C)Cn2ccc(-c3ccc(C#N)c(Cl)c3)n2)c[nH]1 [Example 248, (S)—N-{1-[3-(3-Chloro-4-cyanophenyl)-1H-pyrazol-1-yl]propan-2-yl}-2-methyl-1H-imidazole-4-carboxamide]"
